# Patent US12336981B2, “Compounds and compositions for the inhibition of NAMPT” (Valo Health, Inc., priority 2010, dated 2025)
# Like-named read-outs stand apart in the source and are kept apart here.
# How the values were obtained:
# NAMPT = molecular target: T1, NAMPT (Homo sapiens, UniProt P43490); assay: Biochemical inhibition assay: NAMPT enzymatic reaction, NMN quantified by mass spectrometry; conditions: read-out: Biochem IC50
# T1 construct: His tag; host or cells: E. coli
# Summary of the method: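 Inhibition of E. coli-expressed His-tagged human NAMPT, measured as NMN formation by mass spectrometry after a 30 min room-temperature reaction containing 1 μM NAM, 100 μM PRPP and 2.5 mM ATP.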
# A2780 cells = assay: In-vitro cell proliferation assay (SRB), A2780 cells; assay type: cell-based; conditions: Homo sapiens, A2780, 72 h, A2780 cells, 72 hours, read-out: A2780 IC50
# Summary of the method: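 Read-out is SRB absorbance at 570 nm on TCA-fixed cells after 72 hours of compound treatment at 37° C. in 5% CO2. Background from a media-only plate is subtracted, and % inhibition is interpolated between two tested concentrations.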
# T1 sequence (P43490 whole entry): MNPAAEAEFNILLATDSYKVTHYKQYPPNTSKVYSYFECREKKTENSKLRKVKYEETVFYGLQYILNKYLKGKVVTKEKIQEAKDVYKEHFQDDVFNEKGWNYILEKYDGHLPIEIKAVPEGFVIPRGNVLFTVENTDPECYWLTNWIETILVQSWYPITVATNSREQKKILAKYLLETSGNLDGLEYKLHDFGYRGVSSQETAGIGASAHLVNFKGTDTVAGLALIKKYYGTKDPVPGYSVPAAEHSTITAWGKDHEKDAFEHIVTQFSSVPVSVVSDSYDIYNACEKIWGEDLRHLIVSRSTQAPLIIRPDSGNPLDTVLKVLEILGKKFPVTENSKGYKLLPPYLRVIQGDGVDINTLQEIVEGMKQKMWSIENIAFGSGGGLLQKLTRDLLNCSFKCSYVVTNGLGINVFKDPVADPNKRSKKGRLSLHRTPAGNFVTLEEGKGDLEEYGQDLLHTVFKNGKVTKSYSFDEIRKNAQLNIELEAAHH
SMILES,IC50 (NAMPT; NAMPT enzymatic assay),IC50 (A2780 cells; SRB),IC50 (NAMPT; NAMPT enzymatic reaction),IC50 (A2780 cells; SRB assay)
"Cc1ccc(S(=O)(=O)c2ccc(CNC(=O)c3cc4ccncc4s3)cc2)c(C)c1 [N-({4-[(2,4-dimethylbenzene)sulfonyl]phenyl}methyl)thieno[2,3-c]pyridine-2-carboxamide]",12 nM,22.2 nM,,
O=C(NCc1ccc(S(=O)(=O)c2cccc(N3CCCCC3)c2)cc1)c1ccc2ncsc2c1,21 nM,100 to 1000 nM,,
COc1c(C)cc(S(=O)(=O)c2ccc(CNC(=O)c3cnc4nccn4c3)cc2)cc1C,,1.3 nM,2.7 nM,
"COc1cccc(S(=O)(=O)c2ccc(CNC(=O)c3ccc4nccn4c3)cc2)c1OC [N-({4-[(2,3-dimethoxybenzene)sulfonyl]phenyl}methyl)imidazo[1,2-a]pyridine-6-carboxamide]",,24.9 nM,68.7 nM,
"COc1ccc(S(=O)(=O)c2ccc(CNC(=O)c3cc4ccncc4s3)cc2)c(OC)c1 [N-({4-[(2,4-dimethoxybenzene)sulfonyl]phenyl}methyl)thieno[2,3-c]pyridine-2-carboxamide]",,1.6 nM,4.5 nM,
"COc1cccc(Cl)c1S(=O)(=O)c1ccc(CNC(=O)c2ccc3nccn3c2)cc1 [N-({4-[(2-chloro-6-methoxybenzene)sulfonyl]phenyl}methyl)imidazo[1,2-a]pyridine-6-carboxamide]",,25.8 nM,20.2 nM,
"O=C(NCc1ccc(S(=O)(=O)c2cnc3ccccc3c2)cc1)c1cnc2nccn2c1 [N-{[4-(quinoline-3-sulfonyl)phenyl]methyl}imidazo[1,2-a]pyrimidine-6-carboxamide]",2.5 nM,3.6 nM,,
COc1ccc(OC(F)(F)F)cc1S(=O)(=O)c1ccc(CNC(=O)c2ccc3nccn3c2)cc1,67.7 nM,14.4 nM,,
"O=C(NCc1ccc(S(=O)(=O)c2ccc(Cl)c(F)c2)cc1)c1ccc2nccn2c1 [N-({4-[(4-chloro-3-fluorobenzene)sulfonyl]phenyl}methyl)imidazo[1,2-a]pyridine-6-carboxamide]",,7.24 nM,7.22 nM,
"O=C(NCc1ccc(S(=O)(=O)c2cccc(-c3ccc(F)c(F)c3)n2)cc1)c1cc2cnccc2[nH]1 [N-({4-[6-(3,4-difluorophenyl)pyridine-2-sulfonyl]phenyl}methyl)-1H-pyrrolo[3,2-c]pyridine-2-carboxamide]",16 nM,12.7 nM,,
"O=C(NCc1ccc(S(=O)(=O)c2cccc(OC(F)(F)F)c2)cc1)c1ccc2nccn2c1 [N-[(4-{[3-(trifluoromethoxy)benzene]sulfonyl}phenyl)methyl]imidazo[1,2-a]pyridine-6-carboxamide]",8.73 nM,3.18 nM,,
O=C(NCc1ccc(S(=O)(=O)c2c(Cl)cccc2Cl)cc1)c1cc2ccncc2s1,,18.2 nM,7.6 nM,
O=C(NCc1ccc(S(=O)(=O)c2cccc(-n3cccn3)c2)cc1)c1ccc2nccn2c1,4.8 nM,6.2 nM,,
CCCCOc1cc(F)ccc1S(=O)(=O)c1ccc(CNC(=O)c2cnc3nccn3c2)cc1,,73.8 nM,7.3 nM,
Cc1cc(Cl)ccc1S(=O)(=O)c1ccc(CNC(=O)c2cnc3nccn3c2)cc1,,53.9 nM,6.6 nM,
"O=C(NCc1ccc(S(=O)(=O)c2ccc3ncccc3c2)cc1)c1cnc2nccn2c1 [N-{[4-(quinoline-6-sulfonyl)phenyl]methyl}imidazo[1,2-a]pyrimidine-6-carboxamide]",3.3 nM,5.6 nM,,
COc1ccc(F)cc1S(=O)(=O)c1ccc(CNC(=O)c2cnc3nccn3c2)cc1,,26.1 nM,7.3 nM,
"O=C(NCc1ccc(S(=O)(=O)c2cccc3c2OCO3)cc1)c1cc2ccncc2o1 [N-{[4-(2H-1,3-benzodioxole-4-sulfonyl)phenyl]methyl}furo[2,3-c]pyridine-2-carboxamide]",25.8 nM,26.6 nM,,
"Cc1cc(C)cc(S(=O)(=O)c2ccc(CNC(=O)c3cc4cnccc4[nH]3)cc2)c1 [N-({4-[(3,5-dimethylbenzene)sulfonyl]phenyl}methyl)-1H-pyrrolo[3,2-c]pyridine-2-carboxamide]",,,9 nM,2 nM
"Cc1ccc(S(=O)(=O)c2ccc(CNC(=O)c3cc4cnccc4[nH]3)cc2)s1 [N-{[4-(5-methylthiophene-2-sulfonyl)phenyl]methyl}-1H-pyrrolo[3,2-c]pyridine-2-carboxamide]",,,7 nM,13 nM
CCCCOc1cccc(S(=O)(=O)c2ccc(CNC(=O)c3ccc4nccn4c3)cc2)c1,,18 nM,4.7 nM,
"Cn1ncc2cc(S(=O)(=O)c3ccc(CNC(=O)c4cnc5nccn5c4)cc3)ccc21 [N-{[4-(1-methyl-1H-indazole-5-sulfonyl)phenyl]methyl}imidazo[1,2-a]pyrimidine-6-carboxamide]",1.7 nM,4.9 nM,,

SMILES,IC50 (NAMPT; NAMPT enzymatic assay),IC50 (A2780 cells; SRB),IC50 (NAMPT; NAMPT enzymatic reaction),IC50 (A2780 cells; SRB assay)
"CCCn1cc(S(=O)(=O)c2ccc(CNC(=O)c3ccc4nccn4c3)cc2)cn1 [N-{[4-(1-propyl-1H-pyrazole-4-sulfonyl)phenyl]methyl}imidazo[1,2-a]pyridine-6-carboxamide]",4.9 nM,5.2 nM,,
"O=C(NCc1ccc(S(=O)(=O)c2ccc3c(c2)OCO3)cc1)c1cnc2nccn2c1 [N-{[4-(2H-1,3-benzodioxole-5-sulfonyl)phenyl]methyl}imidazo[1,2-a]pyrimidine-6-carboxamide]",3 nM,11.7 nM,,
"COc1ccc(C(C)(C)C)cc1S(=O)(=O)c1ccc(CNC(=O)c2cc3ccncc3s2)cc1 [N-({4-[(5-tert-butyl-2-methoxybenzene)sulfonyl]phenyl}methyl)thieno[2,3-c]pyridine-2-carboxamide]",,,15 nM,4.6 nM
"O=C(NCc1ccc(S(=O)(=O)N2CCCCC2)cc1)c1ccn2ccnc2c1 [N-{[4-(piperidine-1-sulfonyl)phenyl]methyl}imidazo[1,2-a]pyridine-7-carboxamide]",,,> 100 nM,> 500 nM
"COc1cncc(S(=O)(=O)c2ccc(CNC(=O)c3cnc4[nH]ncc4c3)cc2)c1 [N-{[4-(5-methoxypyridine-3-sulfonyl)phenyl]methyl}-1H-pyrazolo[3,4-b]pyridine-5-carboxamide]",41.4 nM,16.7 nM,,
"O=C(NCc1ccc(S(=O)(=O)c2ccc(Cl)c(F)c2)cc1)c1cc2cnccc2[nH]1 [N-({4-[(4-chloro-3-fluorobenzene)sulfonyl]phenyl}methyl)-1H-pyrrolo[3,2-c]pyridine-2-carboxamide]",,,8 nM,13 nM
"Cc1cc(S(=O)(=O)c2ccc(CNC(=O)c3cc4cnccc4[nH]3)cc2)ccc1F [N-({4-[(4-fluoro-3-methylbenzene)sulfonyl]phenyl}methyl)-1H-pyrrolo[3,2-c]pyridine-2-carboxamide]",,,9 nM,7 nM
O=C(NCc1ccc(S(=O)(=O)c2cccc(OC(F)(F)F)c2)cc1)c1cnc2nccn2c1,2.5 nM,2.7 nM,,
"COc1cccc(S(=O)(=O)c2ccc(CNC(=O)c3cc4ccncc4s3)cc2)c1 [N-({4-[(3-methoxybenzene)sulfonyl]phenyl}methyl)thieno[2,3-c]pyridine-2-carboxamide]",,,5 nM,2.6 nM
"O=C(NCc1ccc(S(=O)(=O)c2ccc(F)cc2C(F)(F)F)cc1)c1cnc2[nH]ncc2c1 [N-[(4-{[4-fluoro-2-(trifluoromethyl)benzene]sulfonyl}phenyl)methyl]-1H-pyrazolo[3,4-b]pyridine-5-carboxamide]",112 nM,109 nM,,
"Cc1cncc(S(=O)(=O)c2ccc(CNC(=O)c3cnc4nccn4c3)cc2)n1 [N-{[4-(6-methylpyrazine-2-sulfonyl)phenyl]methyl}imidazo[1,2-a]pyrimidine-6-carboxamide]",1 nM,52.5 nM,,
"O=C(NCc1ccc(S(=O)(=O)c2cccc(C(F)(F)F)c2)cc1)c1cc2cnccc2[nH]1 [N-[(4-{[3-(trifluoromethyl)benzene]sulfonyl}phenyl)methyl]-1H-pyrrolo[3,2-c]pyridine-2-carboxamide]",,,9 nM,3 nM
"Nc1ccc(C(=O)NCc2ccc(S(=O)(=O)c3cc(F)cc(F)c3)cc2)cn1 [6-amino-N-({4-[(3,5-difluorobenzene)sulfonyl]phenyl}methyl)pyridine-3-carboxamide]",,275 nM,14.2 nM,
COc1ccc(C(C)=O)cc1S(=O)(=O)c1ccc(CNC(=O)c2cnc3[nH]ncc3c2)cc1,,27.5 nM,27.7 nM,
"Cc1nc(S(=O)(=O)c2ccc(CNC(=O)c3cc4ccncc4o3)cc2)cs1 [N-{[4-(2-methyl-1,3-thiazole-4-sulfonyl)phenyl]methyl}furo[2,3-c]pyridine-2-carboxamide]",36.7 nM,69 nM,,
O=C(NCc1ccc(S(=O)(=O)c2ccc(Cl)cc2C(F)(F)F)cc1)c1cc2ccncc2o1,9.8 nM,25.4 nM,,
COc1ccc(OC)c(S(=O)(=O)c2ccc(CNC(=O)c3cc4ccncc4o3)cc2)c1,,6.3 nM,11.4 nM,
CCCOc1ccc(Cl)cc1S(=O)(=O)c1ccc(CNC(=O)c2cc3ccncc3o2)cc1,,9.3 nM,8 nM,
"COc1ccc(S(=O)(=O)c2ccc(CNC(=O)c3cnc4[nH]ncc4c3)cc2)c(OC)n1 [N-{[4-(2,6-dimethoxypyridine-3-sulfonyl)phenyl]methyl}-1H-pyrazolo[3,4-b]pyridine-5-carboxamide]",30.7 nM,2 nM,,
"COc1ccc(S(=O)(=O)c2ccc(CNC(=O)c3cc4ccncc4s3)cc2)cc1 [N-({4-[(4-methoxybenzene)sulfonyl]phenyl}methyl)thieno[2,3-c]pyridine-2-carboxamide]",,,5 nM,2.7 nM
"CC(=O)c1ccccc1S(=O)(=O)c1ccc(CNC(=O)c2cc3cnccc3[nH]2)cc1 [N-({4-[(2-acetylbenzene)sulfonyl]phenyl}methyl)-1H-pyrrolo[3,2-c]pyridine-2-carboxamide]",,,6 nM,4 nM
